Tests used:
[1] = biological target: Recombinant, full length human FLAG-tagged ATM (Homo sapiens (Human), UniProt Q13315); assay: ATM ELISA for p53 S15 phosphorylation; format: biochemical; conditions: 0.75 nM ATM, 25 nM p53, 10 μM ATP, 30 min at 20° C.; read-out: ATM BIO IC50
Procedure, shortened: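 ELISA of p53 S15 phosphorylation by 0.75 nM full-length FLAG-ATM, with 25 nM myc-p53 and 10 μM ATP in HEPES pH 7.5 with Mg/Mn, 30 min at 20° C. Reactions were EDTA-stopped, captured on anti-myc and detected with anti-pS15/HRP-TMB at 450 nm.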

cellular ATM activity = cellular ATM activity (Homo sapiens (Human), UniProt Q13315); assay: Inhibition of cellular ATM activity: etoposide-stimulated KAP1 phosphorylation in U20S cells; format: cell-based; conditions: 100 μM etoposide, 60 min, read-out: ATM CELL IC50
cellular ATM activity, sequence (Q13315 whole entry): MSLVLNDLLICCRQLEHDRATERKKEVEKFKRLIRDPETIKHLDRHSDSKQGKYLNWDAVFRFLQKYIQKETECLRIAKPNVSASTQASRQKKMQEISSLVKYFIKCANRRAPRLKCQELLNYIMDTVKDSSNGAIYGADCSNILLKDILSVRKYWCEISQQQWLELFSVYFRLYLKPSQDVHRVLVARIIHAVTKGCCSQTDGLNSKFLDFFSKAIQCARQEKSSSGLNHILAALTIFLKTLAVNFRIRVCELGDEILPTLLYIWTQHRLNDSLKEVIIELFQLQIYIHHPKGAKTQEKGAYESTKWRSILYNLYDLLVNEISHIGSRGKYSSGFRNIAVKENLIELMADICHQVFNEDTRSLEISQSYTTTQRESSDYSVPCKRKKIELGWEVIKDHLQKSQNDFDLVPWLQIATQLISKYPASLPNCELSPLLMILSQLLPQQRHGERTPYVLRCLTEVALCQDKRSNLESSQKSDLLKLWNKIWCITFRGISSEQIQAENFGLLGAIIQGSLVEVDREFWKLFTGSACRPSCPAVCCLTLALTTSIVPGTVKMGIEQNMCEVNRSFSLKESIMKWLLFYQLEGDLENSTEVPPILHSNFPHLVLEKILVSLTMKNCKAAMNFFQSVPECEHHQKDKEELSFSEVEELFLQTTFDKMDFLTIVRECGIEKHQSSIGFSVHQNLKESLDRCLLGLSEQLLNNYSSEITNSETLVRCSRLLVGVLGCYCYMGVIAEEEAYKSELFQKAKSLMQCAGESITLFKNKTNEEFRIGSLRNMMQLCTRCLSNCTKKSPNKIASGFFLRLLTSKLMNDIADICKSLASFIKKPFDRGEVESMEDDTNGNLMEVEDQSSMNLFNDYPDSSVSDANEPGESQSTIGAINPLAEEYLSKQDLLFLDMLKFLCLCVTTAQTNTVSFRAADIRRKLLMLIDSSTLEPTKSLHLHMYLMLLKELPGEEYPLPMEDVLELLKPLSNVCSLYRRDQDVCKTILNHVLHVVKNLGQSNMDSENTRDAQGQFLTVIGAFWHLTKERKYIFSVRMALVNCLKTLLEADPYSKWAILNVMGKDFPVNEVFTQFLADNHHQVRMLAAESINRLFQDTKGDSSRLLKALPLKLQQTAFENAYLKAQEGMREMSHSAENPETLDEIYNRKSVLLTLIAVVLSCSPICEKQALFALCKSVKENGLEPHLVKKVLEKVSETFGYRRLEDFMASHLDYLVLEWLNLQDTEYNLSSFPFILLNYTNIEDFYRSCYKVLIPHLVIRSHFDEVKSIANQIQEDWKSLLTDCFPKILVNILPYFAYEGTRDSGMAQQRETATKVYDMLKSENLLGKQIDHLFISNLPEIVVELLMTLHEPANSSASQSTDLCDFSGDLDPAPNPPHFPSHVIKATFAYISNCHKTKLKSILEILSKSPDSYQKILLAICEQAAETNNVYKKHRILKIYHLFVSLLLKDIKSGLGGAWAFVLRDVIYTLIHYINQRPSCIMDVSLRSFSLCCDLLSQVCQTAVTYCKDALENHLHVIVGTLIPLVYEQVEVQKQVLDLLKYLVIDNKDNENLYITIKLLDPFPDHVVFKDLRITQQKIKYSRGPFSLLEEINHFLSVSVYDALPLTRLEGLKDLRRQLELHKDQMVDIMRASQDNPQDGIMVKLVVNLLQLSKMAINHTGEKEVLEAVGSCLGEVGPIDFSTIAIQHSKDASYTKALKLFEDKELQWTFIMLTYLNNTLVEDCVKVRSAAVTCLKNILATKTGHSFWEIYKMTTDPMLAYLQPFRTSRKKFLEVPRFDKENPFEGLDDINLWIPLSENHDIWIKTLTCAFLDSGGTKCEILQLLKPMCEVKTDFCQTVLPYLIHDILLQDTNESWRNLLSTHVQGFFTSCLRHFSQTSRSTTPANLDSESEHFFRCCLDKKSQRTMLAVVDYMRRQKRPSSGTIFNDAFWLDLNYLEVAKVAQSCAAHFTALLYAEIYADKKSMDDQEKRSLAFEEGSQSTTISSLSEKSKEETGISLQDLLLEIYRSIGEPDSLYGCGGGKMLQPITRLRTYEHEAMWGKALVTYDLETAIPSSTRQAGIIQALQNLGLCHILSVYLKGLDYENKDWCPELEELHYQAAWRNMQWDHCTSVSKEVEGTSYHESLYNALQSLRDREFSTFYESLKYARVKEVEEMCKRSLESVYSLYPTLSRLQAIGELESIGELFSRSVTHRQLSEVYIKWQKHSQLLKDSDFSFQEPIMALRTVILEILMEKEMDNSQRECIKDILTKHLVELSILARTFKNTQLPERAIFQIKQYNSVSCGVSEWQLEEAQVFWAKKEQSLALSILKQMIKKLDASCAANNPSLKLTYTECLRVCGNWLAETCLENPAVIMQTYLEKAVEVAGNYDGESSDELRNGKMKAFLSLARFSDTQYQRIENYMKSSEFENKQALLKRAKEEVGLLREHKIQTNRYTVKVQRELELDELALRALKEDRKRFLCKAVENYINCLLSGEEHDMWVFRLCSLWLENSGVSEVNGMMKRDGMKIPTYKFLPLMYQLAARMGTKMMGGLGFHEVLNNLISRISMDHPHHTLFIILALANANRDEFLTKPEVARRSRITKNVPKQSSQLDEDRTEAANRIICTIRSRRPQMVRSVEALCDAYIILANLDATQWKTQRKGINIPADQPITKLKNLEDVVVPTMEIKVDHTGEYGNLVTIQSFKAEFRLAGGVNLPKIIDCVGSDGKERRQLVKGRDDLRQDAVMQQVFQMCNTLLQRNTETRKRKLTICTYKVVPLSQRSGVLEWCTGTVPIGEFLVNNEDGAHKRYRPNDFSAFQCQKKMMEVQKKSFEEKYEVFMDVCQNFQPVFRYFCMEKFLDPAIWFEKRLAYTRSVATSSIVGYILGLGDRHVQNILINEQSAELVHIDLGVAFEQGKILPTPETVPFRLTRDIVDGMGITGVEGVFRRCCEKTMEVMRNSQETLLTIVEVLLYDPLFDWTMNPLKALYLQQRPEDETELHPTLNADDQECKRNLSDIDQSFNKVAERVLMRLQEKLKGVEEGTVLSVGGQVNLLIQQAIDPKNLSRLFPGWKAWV

Recombinant, full length human FLAG-tagged ATM, sequence (Q13315 whole entry): as above

Q: With O=c1cc(N2CCOCC2)nc(N2CCCC(F)(F)C[C@@H]2Cc2ccccc2)[nH]1 [Example 244] as the compound, how does the IC50 [1] read?
A: The IC50 was 10.2 nM.

Q: And the IC50 (cellular ATM activity)?
A: Its IC50 is 273 nM.

Q: C[C@@H]1CN(c2cc(=O)[nH]c(N3CCCCC[C@@H]3Cc3ccsc3)n2)CCO1 [Example 315, 6-((R)-2-methylmorpholino)-2-((R)-2-(thiophen-3-ylmethyl)azepan-1-yl)pyrimidin-4(3H)-one] was tested. Which IC50 [1] did it give?
A: The IC50 was 16.4 nM.

Q: What about the IC50 (cellular ATM activity) of the same compound?
A: Its IC50 is 813 nM.

Q: Which IC50 [1] does the source give for C[C@H]1CCCN(c2nc(N3CCOCC3)cc(=O)[nH]2)[C@@H](Cc2ccccc2)C1 [Example 233] here?
A: Its IC50 is 1.2 nM.

Q: And the IC50 (cellular ATM activity)?
A: The IC50 was 327 nM.

Q: For O=c1cc(N2CCOCC2)nc(N2CCCCC[C@@H]2Cc2ccccc2Cl)[nH]1 [Example 205], which IC50 [1] is on record?
A: Its IC50 is 39.6 nM.

Q: And the IC50 (cellular ATM activity)?
A: The IC50 was 797 nM.

Q: Which results are given for CC(C)(c1ccccc1)[C@H]1CCCN1c1nc(N2CCOCC2)cc(=O)[nH]1 [Example 196]?
A: IC50 [1]: 46.9 nM; IC50 (cellular ATM activity): 975 nM

Q: For COC[C@@H](C)Oc1cccc(C[C@H]2CCCN2c2cc(N3CCOCC3)cc(=O)[nH]2)c1 [Example 148, 6-((R)-2-(3-(((R)-1-methoxypropan-2-yl)oxy)benzyl)pyrrolidin-1-yl)-4-morpholinopyridin-2(1H)-one], which IC50 [1] is on record?
A: Its IC50 is 41.8 nM.

Q: What about the IC50 (cellular ATM activity) of the same compound?
A: The IC50 was 1170 nM.

Q: What does the source list for C[C@@H]1CN(c2cc(=O)[nH]c(N3CCC[C@@H]3Cc3ccc(Cl)c(Cl)c3)n2)CCO1 [Example 278, 2-[(2R)-2-[(3,4-dichlorophenyl)methyl]pyrrolidin-1-yl]-4-[(2R)-2-methylmorpholin-4-yl]-1H-pyrimidin-6-one]?
A: IC50 [1]: 89.7 nM; IC50 (cellular ATM activity): 969 nM

Q: What does the source list for COc1ccc(F)cc1C[C@H]1CCCCCN1c1cc(N2CCOCC2)cc(=O)[nH]1 [Example 86]?
A: IC50 [1]: 65 nM; IC50 (cellular ATM activity): 1380 nM

Q: For COc1ccccc1C[C@H]1C[C@@H](C)CCCN1c1nc(N2CCOCC2)cc(=O)[nH]1 [Example 237], which IC50 [1] is on record?
A: The IC50 was 35.6 nM.

Q: What about the IC50 (cellular ATM activity) of the same compound?
A: Its IC50 is 592 nM.

Q: For COc1ccc(C[C@H]2CCCN2c2cc(N3CCOCC3)cc(=O)[nH]2)cc1 [Example 13, (R)-6-(2-(4-methoxybenzyl)pyrrolidin-1-yl)-4-morpholino pyridin-2(1H)-one], which IC50 [1] is on record?
A: The IC50 was 70.5 nM.

Q: And the IC50 (cellular ATM activity)?
A: The IC50 was 4490 nM.

Q: How did the IC50 [1] turn out when Cc1ccccc1C[C@H]1CCCCCN1c1nc(N2CCOCC2)cc(=O)[nH]1 [Example 181, (R)-2-(2-(2-methylbenzyl)azepan-1-yl)-6-morpholinopyrimidin-4(3H)-one] was run?
A: Its IC50 is 1.2 nM.

Q: What about the IC50 (cellular ATM activity) of the same compound?
A: Its IC50 is 548 nM.

Q: O=c1cc(N2CCOCC2)nc(N2C[C@H]3C[C@H]3[C@@H]2Cc2ccc(F)cc2)[nH]1 [Example 209] was tested. Which IC50 [1] did it give?
A: The IC50 was 8.9 nM.

Q: And the IC50 (cellular ATM activity)?
A: The IC50 was 377 nM.

Q: Which results are given for C[C@@H]1CN(c2cc(=O)[nH]c(N3CCC[C@@H]3Cc3ccccc3)n2)C[C@@H](C)O1 [Example 347, 2-((R)-2-benzylpyrrolidin-1-yl)-6-((2R,6R)-2,6-dimethylmorpholino)pyrimidin-4(3H)-one]?
A: IC50 [1]: 23.7 nM; IC50 (cellular ATM activity): 528 nM

Q: With C[C@@H]1CN(c2cc(=O)[nH]c(N3CCC(F)(F)[C@@H]3Cc3ccccc3)n2)CCO1 [Example 322, 2-((S)-2-benzyl-3,3-difluoropyrrolidin-1-yl)-6-((R)-2-methylmorpholino)pyrimidin-4(3H)-one] as the compound, how does the IC50 [1] read?
A: The IC50 was 33.2 nM.

Q: And the IC50 (cellular ATM activity)?
A: Its IC50 is 2840 nM.

Q: For COc1ccccc1C[C@H]1CC2(CC2)CN1c1nc(N2CCOCC2)cc(=O)[nH]1 [Example 264, (R)-2-(6-(2-methoxybenzyl)-5-azaspiro[2.4]heptan-5-yl)-6-morpholinopyrimidin-4(3H)-one], which IC50 [1] is on record?
A: Its IC50 is 5.3 nM.

Q: And the IC50 (cellular ATM activity)?
A: The IC50 was 350 nM.

Q: What does the source list for O=c1cc(N2CCOCC2)cc(N2CCCCC[C@@H]2Cc2cccs2)[nH]1 [Example 31, 4-morpholino-6-[(2R)-2-(2-thienylmethyl)azepan-1-yl]-1H-pyridin-2-one]?
A: IC50 [1]: 12.3 nM; IC50 (cellular ATM activity): 260 nM

Q: How did the IC50 [1] turn out when O=c1cc(N2CCOCC2)cc(N2CCCCC[C@@H]2Cc2cccc3c2OCC3)[nH]1 [Example 57, (R)-6-(2-((2,3-dihydrobenzofuran-7-yl)methyl)azepan-1-yl)-4-morpholinopyridin-2(1H)-one] was run?
A: Its IC50 is 18 nM.

Q: And the IC50 (cellular ATM activity)?
A: The IC50 was 292 nM.

Q: With COc1ccccc1C[C@H]1CCCCCN1c1nc(N2CCOCC2)cc(=O)[nH]1 [Example 201] as the compound, how does the IC50 [1] read?
A: The IC50 was 14.1 nM.

Q: And the IC50 (cellular ATM activity)?
A: The IC50 was 693 nM.

Source: US11685734B2, “ATM kinase inhibitors and compositions and methods of use thereof” (CHDI Foundation, Inc., priority 2019, dated 2023)
